4 compounds from patent US20230265151A1, “GIP/GLP1 CO-AGONIST COMPOUNDS” (priority 2020, published 2023) can be followed below.

As usually defined, the Emax is the size of the effect at its maximum, as opposed to the concentration needed. In general, EC50 refers to the concentration giving half of the maximal effect.

Where two headings read alike, the source gives them in different places. *1 amine or outer side, *2 acyl side, *3 side chain or, on linkers, in order; H or OH if unused. Where a SMILES comes first, the peptide text is derived from it. Side-chain parts run from the residue outwards. [ ]: non-standard residue; d: D form. The star is where a group is joined. αMePhe(2-F) = C[C@](N)(Cc1ccccc1F)C(=O)O; γGlu = O=C(O)[C@H](CCC(=O)[*:2])N[*:1]; αMeY = C[C@](N)(Cc1ccc(O)cc1)C(=O)O; αMeF = C[C@](N)(Cc1ccccc1)C(=O)O; 4Pal = N[C@@H](Cc1ccncc1)C(=O)O; αMeL = CC(C)C[C@](C)(N)C(=O)O; Lauroyl = CCCCCCCCCCCC(=O)*; Orn = NCCC[C@H](N)C(=O)O; AEEA = NCCOCCOCC(=O)O; Aib = CC(C)(N)C(=O)O

Common to all, as to format: cell-based
One experiment has as its target T1, hGIPR (Homo sapiens, UniProt P48546).
T1 construct: expressed in transfected cells
T1 sequence (P48546 22-466): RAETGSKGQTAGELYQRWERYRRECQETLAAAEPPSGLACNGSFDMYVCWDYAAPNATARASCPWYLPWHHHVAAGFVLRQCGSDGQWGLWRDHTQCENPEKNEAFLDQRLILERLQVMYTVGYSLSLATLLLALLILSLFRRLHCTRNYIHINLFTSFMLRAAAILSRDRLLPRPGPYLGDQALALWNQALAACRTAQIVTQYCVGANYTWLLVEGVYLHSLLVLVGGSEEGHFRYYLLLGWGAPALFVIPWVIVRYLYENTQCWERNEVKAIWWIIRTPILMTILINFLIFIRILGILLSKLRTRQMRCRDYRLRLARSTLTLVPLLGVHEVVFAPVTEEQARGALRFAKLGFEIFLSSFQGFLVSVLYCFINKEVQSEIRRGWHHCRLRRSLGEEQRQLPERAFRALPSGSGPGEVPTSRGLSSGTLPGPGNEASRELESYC
As to the kind of experiment: Functional cAMP formation (HTRF) in HEK-293 clonal cells expressing hGIPR, 0.1% bovine casein, without or with 1.0% human serum albumin. In short, it runs like this: (§1)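 Readings of the HTRF 665/620 nm ratio, which falls as cAMP rises, were converted to nM cAMP using a standard curve after 30 min peptide exposure at 37° C.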
Background: Changes in cAMP serve as a functional read-out for many G protein-coupled receptors.

For the next experiment, the target named is T2, hGCGR (Homo sapiens, UniProt P47871).
T2 construct: expressed in transfected cells
As to the kind of experiment: Functional cAMP formation (HTRF) in HEK-293 clonal cells expressing hGCGR, 0.1% bovine casein, without or with 1.0% human serum albumin. In short, it runs like this: as §1

Another experiment has as its target hGLP-1R (Homo sapiens, UniProt P43220). The experiment can be described thus: Functional cAMP formation (HTRF) in HEK-293 clonal cells expressing hGLP-1R, 0.1% bovine casein, without or with 1.0% human serum albumin. Further details: expressed in transfected cells. The settings on record: for EC50: cAMP, 0.1% bovine casein (no human serum albumin), geometric mean; for Emax: read-out: hGLP-1R Emax, % ± SEM. Summed up: as §1

Setting [1] is: 0.1% bovine casein and 1.0% human serum albumin, 37° C., geometric mean, read-out: hGIPR EC50, nM (SEM, n).
Where [2] appears, read: 0.1% bovine casein and 1.0% human serum albumin, 37° C., geometric mean, read-out: hGCGR EC50, nM (SEM, n).
Where [3] appears, read: HEK293, 0.1% bovine casein and 1.0% human serum albumin, 37° C., percent of maximal response to GLP-1(7-36)NH2.
The mark [4] stands for this setting: cAMP, 37° C., 0.1% bovine casein (no human serum albumin), geometric mean, read-out: hGCGR EC50, nM (SEM, n).

hGLP-1R, sequence (P43220 24-463): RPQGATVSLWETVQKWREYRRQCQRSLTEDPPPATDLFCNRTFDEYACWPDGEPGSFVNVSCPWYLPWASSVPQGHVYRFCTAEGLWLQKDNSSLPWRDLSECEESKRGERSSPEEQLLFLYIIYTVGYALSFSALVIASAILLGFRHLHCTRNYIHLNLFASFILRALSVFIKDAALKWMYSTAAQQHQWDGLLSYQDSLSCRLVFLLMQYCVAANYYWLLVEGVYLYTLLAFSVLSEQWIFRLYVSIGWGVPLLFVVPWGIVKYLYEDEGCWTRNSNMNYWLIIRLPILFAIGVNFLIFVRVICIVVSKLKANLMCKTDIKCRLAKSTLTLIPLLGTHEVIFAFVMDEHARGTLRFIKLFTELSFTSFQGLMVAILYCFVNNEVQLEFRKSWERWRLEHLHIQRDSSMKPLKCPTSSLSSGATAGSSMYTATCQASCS
T2 sequence (P47871 26-477): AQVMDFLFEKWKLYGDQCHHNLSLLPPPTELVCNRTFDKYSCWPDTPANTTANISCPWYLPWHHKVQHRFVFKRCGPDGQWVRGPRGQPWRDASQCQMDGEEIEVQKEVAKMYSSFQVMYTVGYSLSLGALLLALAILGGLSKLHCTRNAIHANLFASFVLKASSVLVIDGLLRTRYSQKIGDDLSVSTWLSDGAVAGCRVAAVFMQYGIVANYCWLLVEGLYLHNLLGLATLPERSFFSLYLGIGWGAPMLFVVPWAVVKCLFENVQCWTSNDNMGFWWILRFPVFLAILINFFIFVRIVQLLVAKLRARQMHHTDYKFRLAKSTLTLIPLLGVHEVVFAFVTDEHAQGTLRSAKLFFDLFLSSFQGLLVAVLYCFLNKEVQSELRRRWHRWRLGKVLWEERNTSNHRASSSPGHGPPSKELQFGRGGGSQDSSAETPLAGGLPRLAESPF

In the case of `CC[C@H](C)[C@H](NC(=O)[C@H](CC(C)C)NC(=O)[C@](C)(Cc1ccc(O)cc1)NC(=O)[C@H](CCCCNC(=O)COCCOCCNC(=O)COCCOCCNC(=O)CC[C@H](NC(=O)CCCCCCCCCCCCC(=O)O)C(=O)O)NC(=O)[C@@H](NC(=O)[C@H](Cc1ccccc1)NC(=O)[C@H](CCC(=O)O)NC(=O)C(C)(C)NC(=O)[C@H](CCC(N)=O)NC(=O)[C@H](C)NC(=O)[C@H](CCCCNC(=O)COCCOCCNC(=O)COCCOCCNC(=O)CC[C@H](NC(=O)CCCCCCCCCCCCC(=O)O)C(=O)O)NC(=O)[C@H](CCCN)NC(=O)[C@H](CC(=O)O)NC(=O)[C@H](CC(C)C)NC(=O)[C@](C)(CC(C)C)NC(=O)[C@@H](NC(=O)[C@H](CO)NC(=O)[C@@H](NC(=O)[C@H](CC(=O)O)NC(=O)[C@H](CO)NC(=O)[C@@H](NC(=O)[C@](C)(Cc1ccccc1)NC(=O)[C@@H](NC(=O)CNC(=O)[C@H](CCC(=O)O)NC(=O)C(C)(C)NC(=O)[C@@H](N)Cc1ccc(O)cc1)[C@@H](C)O)[C@@H](C)O)C(C)C)[C@@H](C)CC)[C@@H](C)CC)C(=O)N[C@@H](CCC(=O)O)C(=O)NCC(=O)NCC(=O)N1CCC[C@H]1C(=O)N[C@@H](CO)C(=O)N[C@@H](CO)C(=O)NCC(=O)N[C@@H](C)C(=O)N1CCC[C@H]1C(=O)N1CCC[C@H]1C(=O)N1CCC[C@H]1C(=O)N[C@@H](CO)C(N)=O` [Example 181], the Emax at hGIPR (HEK293, read-out: hGIPR Emax, % ± SEM, percent of maximal response to GIP(1-42)NH2, 37° C., 0.1% bovine casein, arithmetic mean) is 94.6%. Moreover, the EC50 was 0.154 nM on hGIPR (hGIPR EC50, nM (SEM, n), cAMP, incubated at 37° C., 0.1% bovine casein (no human serum albumin), geometric mean); more than 9950 nM at hGCGR (hGCGR EC50, nM (SEM, n), cAMP, incubated at 37° C., 0.1% bovine casein (no human serum albumin), geometric mean); 0.182 nM at hGLP-1R (hGLP-1R EC50, nM (SEM, n), incubated at 37° C.).
In the case of `CC[C@H](C)[C@H](NC(=O)[C@H](CC(C)C)NC(=O)[C@](C)(Cc1ccc(O)cc1)NC(=O)[C@@H](CCC(=O)O)NC(=O)[C@@H](NC(=O)[C@H](Cc1ccccc1F)NC(=O)[C@H](CCC(=O)O)NC(=O)C(C)(C)NC(=O)[C@H](CCC(N)=O)NC(=O)[C@H](C)NC(=O)[C@H](CCCCNC(=O)COCCOCCNC(=O)COCCOCCNC(=O)CC[C@H](NC(=O)CCCCCCCCCCCCC(=O)O)C(=O)O)NC(=O)[C@H](CCCN)NC(=O)[C@H](CC(=O)O)NC(=O)[C@H](CC(C)C)NC(=O)[C@](C)(CC(C)C)NC(=O)[C@@H](NC(=O)[C@H](CO)NC(=O)[C@H](Cc1ccncc1)NC(=O)[C@H](CC(=O)O)NC(=O)[C@H](CO)NC(=O)[C@@H](NC(=O)[C@](C)(Cc1ccccc1F)NC(=O)[C@@H](NC(=O)CNC(=O)[C@H](CCC(=O)O)NC(=O)C(C)(C)NC(=O)[C@@H](N)Cc1ccc(O)cc1)[C@@H](C)O)[C@@H](C)O)[C@@H](C)CC)[C@@H](C)CC)C(=O)N[C@@H](CCC(=O)O)C(=O)NCC(=O)NCC(=O)N[C@@H](CCCCNC(=O)COCCOCCNC(=O)COCCOCCNC(=O)CC[C@H](NC(=O)CCCCCCCCCCCCC(=O)O)C(=O)O)C(=O)N[C@@H](CO)C(=O)N[C@@H](CO)C(=O)NCC(=O)N[C@@H](C)C(=O)N1CCC[C@H]1C(=O)N1CCC[C@H]1C(=O)N1CCC[C@H]1C(=O)N[C@@H](CO)C(N)=O` [Example 63], the EC50 at hGIPR (setting [1]) was 0.771 nM; at hGIPR (cAMP, incubated at 37° C., 0.1% bovine casein (no human serum albumin), geometric mean, read-out: hGIPR EC50, nM (SEM, n)), 0.0176 nM; on hGCGR (setting [2]) it was more than 9950 nM; on hGCGR (cAMP, incubated at 37° C., 0.1% bovine casein (no human serum albumin), geometric mean, read-out: hGCGR EC50, nM (SEM, n)) it was more than 9950 nM. Further, the Emax on hGLP-1R (setting [3]) is 98%; at hGLP-1R (HEK293, percent of maximal response to GLP-1(7-36)NH2, 37° C., 0.1% bovine casein, arithmetic mean), 90.6%.
Regarding `CCCCCCCCCCCC(=O)N[C@@H](CCC(=O)NCCOCCOCC(=O)NCCOCCOCC(=O)NCCCC[C@H](NC(=O)[C@H](CCCN)NC(=O)[C@H](CC(=O)O)NC(=O)[C@H](CC(C)C)NC(=O)[C@](C)(CC(C)C)NC(=O)[C@@H](NC(=O)C(C)(C)NC(=O)[C@H](Cc1ccncc1)NC(=O)[C@H](CC(=O)O)NC(=O)[C@H](CO)NC(=O)[C@@H](NC(=O)[C@](C)(Cc1ccccc1F)NC(=O)[C@@H](NC(=O)CNC(=O)[C@H](CCC(=O)O)NC(=O)C(C)(C)NC(=O)[C@@H](N)Cc1ccc(O)cc1)[C@@H](C)O)[C@@H](C)O)[C@@H](C)CC)C(=O)N[C@@H](C)C(=O)N[C@@H](CCC(N)=O)C(=O)NC(C)(C)C(=O)N[C@@H](CCCCNC(=O)COCCOCCNC(=O)COCCOCCNC(=O)CC[C@H](NC(=O)CCCCCCCCCCC)C(=O)O)C(=O)N[C@@](C)(Cc1ccccc1)C(=O)N[C@H](C(=O)N[C@H](CCC(=O)O)C(=O)N[C@@](C)(Cc1ccc(O)cc1)C(=O)N[C@@H](CC(C)C)C(=O)N[C@H](C(=O)N[C@@H](CCC(=O)O)C(=O)NCC(=O)NCC(=O)N1CCC[C@H]1C(=O)N[C@@H](CO)C(=O)N[C@@H](CO)C(=O)NCC(=O)N[C@@H](C)C(=O)N1CCC[C@H]1C(=O)N1CCC[C@H]1C(=O)N1CCC[C@H]1C(=O)N[C@@H](CO)C(N)=O)[C@@H](C)CC)[C@@H](C)CC)C(=O)O` [Example 430] (H-Y[Aib]EGT[αMePhe(2-F)]TSD[4Pal][Aib]I[αMeL]LD[Orn]K([AEEA-AEEA-γGlu-Lauroyl])AQ[Aib]K([AEEA-AEEA-γGlu-Lauroyl])[αMeF]I[dE][αMeY]LIEGGPSSGAPPPS-NH2), the Emax was found to be 91.5% on hGIPR (HEK293, cAMP, 37° C., 0.1% bovine casein and 1.0% human serum albumin, percent of maximal response to GIP(1-42)NH2, read-out: hGIPR Emax, % ± SEM); 88.5% on hGLP-1R (HEK293, cAMP, 37° C., 0.1% bovine casein and 1.0% human serum albumin, percent of maximal response to GLP-1(7-36)NH2); 93.1% at hGLP-1R (HEK293, cAMP, 37° C., 0.1% bovine casein, percent of maximal response to GLP-1(7-36)NH2, arithmetic mean). Besides, the half-maximal effective concentration (EC50) on hGIPR (cAMP, 37° C., 0.1% bovine casein (no human serum albumin), geometric mean, read-out: hGIPR EC50, nM (SEM, n)) was 0.0175 nM; at hGIPR (cAMP, 37° C., 0.1% bovine casein and 1.0% human serum albumin, geometric mean (SEM, n), read-out: hGIPR EC50, nM (SEM, n)), 1.09 nM; on hGCGR (setting [4]) it was more than 9950 nM; at hGCGR (cAMP, 37° C., 0.1% bovine casein and 1.0% human serum albumin, geometric mean (SEM, n), read-out: hGCGR EC50, nM (SEM, n)) it was more than 9950 nM; on hGLP-1R (37° C., read-out: hGLP-1R EC50, nM (SEM, n)), 0.342 nM.
As for `CCCCCCCCCCCC(=O)N[C@@H](CCC(=O)NCCOCCOCC(=O)NCCOCCOCC(=O)NCCCC[C@H](NC(=O)[C@H](CCCN)NC(=O)[C@H](CC(=O)O)NC(=O)[C@H](CC(C)C)NC(=O)[C@](C)(CC(C)C)NC(=O)[C@@H](NC(=O)[C@H](CO)NC(=O)[C@H](Cc1ccc(OC)cc1)NC(=O)[C@H](CC(=O)O)NC(=O)[C@H](CO)NC(=O)[C@@H](NC(=O)[C@](C)(Cc1ccccc1F)NC(=O)[C@@H](NC(=O)CNC(=O)[C@H](CCC(=O)O)NC(=O)C(C)(C)NC(=O)[C@@H](N)Cc1ccc(O)cc1)[C@@H](C)O)[C@@H](C)O)[C@@H](C)CC)C(=O)N[C@@H](C)C(=O)N[C@@H](CCC(N)=O)C(=O)NC(C)(C)C(=O)N[C@@H](CCC(=O)O)C(=O)N[C@@H](Cc1ccccc1)C(=O)N[C@H](C(=O)N[C@H](CCC(=O)O)C(=O)N[C@@](C)(Cc1ccc(O)cc1)C(=O)N[C@@H](CC(C)C)C(=O)N[C@H](C(=O)N[C@@H](CCCCNC(=O)COCCOCCNC(=O)COCCOCCNC(=O)CC[C@H](NC(=O)CCCCCCCCCCC)C(=O)O)C(=O)NCC(=O)NCC(=O)N1CCC[C@H]1C(=O)N[C@@H](CO)C(=O)N[C@@H](CO)C(=O)NCC(=O)N[C@@H](C)C(=O)N1CCC[C@H]1C(=O)N1CCC[C@H]1C(=O)N1CCC[C@H]1C(=O)N[C@@H](CO)C(N)=O)[C@@H](C)CC)[C@@H](C)CC)C(=O)O` [Example 290], the EC50 on hGIPR (setting [1]) is 0.878 nM; on hGCGR (setting [2]) it was more than 9950 nM; at hGCGR (setting [4]), more than 9950 nM. The Emax on hGIPR (HEK293, 0.1% bovine casein and 1.0% human serum albumin, 37° C., percent of maximal response to GIP(1-42)NH2, read-out: hGIPR Emax, % ± SEM) is 93.4%; on hGLP-1R (setting [3]) it was 109%.
